Source: patent US20110212885A1, “OPHTHALMIC AND CONTACT LENS SOLUTIONS CONTAINING PEPTIDES AS PRESERVATIVE” (priority 2003, published 2011)
Where two headings read alike, the source gives them in different places. Non-standard residues stand in square brackets, D forms with d. Residues, ends and D or L forms follow the SMILES beside them. No end group written: not given here.

What was measured:
Format in all cases: cell-based
[1] = system: Pseudomonas aeruginosa (ATCC 9027); conditions: for lowest concentration giving complete kill of P. aeruginosa: Experiment 3, tested 100 to 1 ug/mL in water; for average cfu/mL: P. aeruginosa; for biocidal effect on P. aeruginosa (in words): 100 ug/mL in water
Protocol: (§1) Peptides were tested using a conventional Disinfection Efficacy antimicrobial assay (ISO 14729), commonly used in evaluating biocidal efficacy of preservatives for use in contact lens care solutions. Briefly, a known concentration of organisms are inoculated into the test solution, and allowed to incubate for a given amount of time, after which they are neutralized to inactivate the preservative. Samples are serially diluted and plated in duplicate onto petri plates onto which growth medium is poured. The plates are incubated at 35° C. (bacteria) or 25° C. (yeast and molds) for 48 hours. The average number of colony forming units is determined on countable plates (the dilution at which between 30 to 300 cfu/plate are observed, except when colonies are observed only on the −1 dilution plates). The log reduction resulting from exposure to the test solution is calculated based on the growth of positive controls plated simultaneously. Recovery controls, to confirm that the test solution is neutralized, and viability controls are also plated.
(§2) Method: The Disinfection Efficacy test was used with the following organisms: Staphylococcus aureus (ATCC 6538), Pseudomonas aeruginosa (ATCC 9027), Serratia marcesens (ATCC 13880), Candida albicans (ATCC 10231), and Fusarium solani (ATCC 36031). The peptides were diluted in water at a concentration of 100 ug/mL (adjusted for purity). Organism cultures were prepared to result in an inoculum concentration between 10^7 and 10^8 cfu/mL. The test solutions were inoculated for a 1 hour and a 3 hour exposure period, neutralized with DEB with 0.1% SLS added, and plated in duplicate.
(§3) Method: The Disinfection Efficacy test was used as in experiment 2 using Staphylococcus aureus and Pseudomonas aeruginosa. The peptides were diluted in water at concentrations of 100, 33.3, 10, 3.33, and 1 ug/mL. The test solutions were inoculated for 1 hour, neutralized, and plated in duplicate.

[2] = system: Staphylococcus aureus (ATCC 6538); conditions: for concentration giving complete kill of S. aureus: tested 100 to 1 ug/mL in water; for average cfu/mL: S. aureus; for biocidal effect on S. aureus (in words): 100 ug/mL in water
Protocol: as §1, §2, §3

[3] = system: Candida albicans (ATCC 10231); conditions: 1 hour exposure; for average cfu/mL: C. albicans, peptide 100 ug/mL in water; for biocidal effect on C. albicans (in words): 100 ug/mL in water
Protocol: as §1
Method: Candida albicans (ATCC 10231) stock cultures were incubated and prepared to result in cell suspensions containing between 10^7 and 10^8 cfu/mL. The Disinfection Efficacy test, as described above, was used, with the following modification: Since the standard Dey-Engley broth used to neutralize preservatives was not necessarily expected to neutralize the peptide, 0.1% sodium laurel sulfate (SLS) was added to the neutralization solution. Controls confirmed that this was effective in neutralizing the peptide test solution.
as §2

[4] = system: Fusarium solani (ATCC 36031); conditions: 1 hour exposure; for average cfu/mL: F. solani, peptide 100 ug/mL in water; for biocidal effect on F. solani (in words): 100 ug/mL in water
Protocol: as §1, §2

[5] = system: Serratia marcesens (ATCC 13880); conditions: 1 hour exposure; for average cfu/mL: S. marcescens, peptide 100 ug/mL in water; for biocidal effect on S. marcescens (in words): 100 ug/mL in water
Protocol: as §1, §2

[6] = T = 1 hr, Conc. 1 μg/mL in water
[7] = T = 1 hr, Conc. 3.33 μg/mL in water
[8] = T = 1 hr, Conc. 10 μg/mL in water
[9] = T = 1 hr, Conc. 33 μg/mL in water
[10] = T = 1 hr, Conc. 100 μg/mL in water
[11] = peptide 100 ug/mL in water, 1 hour exposure

Molecule | lowest concentration giving complete kill of P. aeruginosa ([1]; 1 hour exposure) [µg/mL] | average cfu/mL [1, 6] [cfu/mL] | average cfu/mL [1, 7] [cfu/mL] | average cfu/mL [1, 8] [cfu/mL] | average cfu/mL [1, 9] [cfu/mL] | average cfu/mL [1, 10] [cfu/mL] | average cfu/mL [1, 11] [cfu/mL] | concentration giving complete kill of S. aureus ([2]; Experiment 3, 1 hour exposure) [µg/mL] | average cfu/mL [2, 6] [cfu/mL] | average cfu/mL [2, 7] [cfu/mL] | average cfu/mL [2, 8] [cfu/mL] | average cfu/mL [2, 9] [cfu/mL] | average cfu/mL [2, 10] [cfu/mL] | average cfu/mL [2, 11] [cfu/mL] | average cfu/mL [3] [cfu/mL] | average cfu/mL [4] [cfu/mL] | average cfu/mL [5] [cfu/mL] | biocidal effect on P. aeruginosa (in words) ([1]; 1 hour exposure) | biocidal effect on S. aureus (in words) ([2]; 1 hour exposure) | biocidal effect on C. albicans (in words) [3] | other results
FAKKFAKKFKKFAKKFAKFAFAF [D2A21] | 1 | 0.00E+00 | 0.00E+00 | 0.00E+00 | 0.00E+00 | 0.00E+00 | 0.00E+00 | 3.33 | 1.12E+03 | 0.00E+00 | 1.00E+01 | 0.00E+00 | 0.00E+00 | 0.00E+00 | 0.00E+00 | 0.00E+00 | 0.00E+00 | – | – | – | –
FKLRAKIKVRLRAKIKL [D4E1] | 1 | 1.00E+01 | 0.00E+00 | 0.00E+00 | 5.00E+00 | 0.00E+00 | 0.00E+00 | 1 | 5.00E+00 | 0.00E+00 | 0.00E+00 | 0.00E+00 | 0.00E+00 | 0.00E+00 | 0.00E+00 | 0.00E+00 | 0.00E+00 | – | – | – | –
C[C@@H](N)C(=O)N[C@H](CCCCN)C(=O)N[C@H](CCCNC(=N)N)C(=O)N[C@H](Cc1c[nH]cn1)C(=O)N[C@H](Cc1c[nH]cn1)C(=O)NCC(=O)N[C@H](Cc1ccc(O)cc1)C(=O)N[C@H](CCCCN)C(=O)N[C@H](CCCNC(=N)N)C(=O)N[C@H](CCCCN)C(=O)N[C@H](Cc1ccccc1)C(=O)N[C@H](Cc1c[nH]cn1)C(N)=O [P113D] (H-[dA][dK][dR][dH][dH]G[dY][dK][dR][dK][dF][dH]-NH2; N-terminus and C-terminus assumed) | – | – | – | – | – | – | 2.00E+01 | – | – | – | – | – | – | 4.70E+05 | 3.30E+03 | 6.40E+03 | 2.80E+05 | effective | no effect | effective | biocidal effect on F. solani (in words) [4]: effective; biocidal effect on S. marcescens (in words) [5]: no effect
AKRHHGYKRKFH-NH2 [P-113] | 3.33 | 3.90E+02 | 5.00E+00 | 1.50E+01 | 0.00E+00 | 0.00E+00 | 6.00E+01 | – | 5.95E+04 | 1.44E+05 | 2.02E+05 | 3.40E+05 | 3.80E+05 | 6.10E+05 | 5.51E+03 | 6.00E+03 | 4.00E+05 | effective | no effect | effective | effectiveness against S. aureus (in words) ([2]; Experiment 3, 1 hour exposure, 100 to 1 ug/mL in water): not effective; biocidal effect on F. solani (in words) [4]: effective; biocidal effect on S. marcescens (in words) [5]: no effect
